Measured values taken from PMC12114840, “Exploring the Anticancer Properties of 1,2,3-Triazole-Substituted Andrographolide Derivatives” (Pharmaceuticals, 2025).

What was measured:
[1] = test system: cleaved PARP-1; assay: Western blot, cleaved PARP-1; type: cell-based, human; conditions: PANC-1, 3 and 6 μM, 48 h
Text: To further investigate the mechanism of action of the triazole derivative 12, an apoptosis analysis was subsequently performed in PANC-1 cells. The early stages of apoptosis are characterized by the disruption of membrane asymmetry and the translocation of phosphatidylserine from the inner to the outer leaflet of the plasma membrane, which can be detected using Annexin V-FITC, a protein with high affinity for phosphatidylserine. In the later stages of apoptosis, the cell membrane loses its integrity, allowing propidium iodide (PI) to penetrate into the cell. Thus, PANC-1 cells treated with compound 12 at 3 and 6 μM for 48 h were analyzed by flow cytometry after Annexin V-FITC and PI staining (Figure 1B, bottom panel; and Figure 1D). This analysis can distinguish and quantify viable cells (annexin V−, PI−), early apoptotic cells (annexin V+, PI−), late apoptotic cells (annexin V+, PI+), and necrotic cells (annexin V−/PI+). […]
PANC-1 (1.5 × 10^5 cells/well) were seeded in six-well plates, allowed to adhere overnight, and treated with 3 µM and 6 µM of compound 12 for 48 h. Protein lysates were obtained in RIPA buffer with protease inhibitors (Sigma-Aldrich, Lisbon, Portugal) and quantified using Pierce® bicinchoninic acid (BCA) protein assay reagents (Thermo Fisher Scientific, Porto Salvo, Portugal). […]

[2] = test system: CCD-18Co cells (non-tumorigenic colon); assay: Sulforhodamine B (SRB) antiproliferative assay, CCD-18Co; type: cell-based; conditions: Homo sapiens, CCD-18Co non-tumorigenic, 48 h, mean ± SEM of four to six independent experiments
Description: (§1) The antiproliferative properties of andrographolide and all prepared derivatives (2–26) were evaluated against a panel of different cancer cell lines, including human pancreatic ductal adenocarcinoma (PANC-1), colorectal adenocarcinoma (HCT116), melanoma (A375), breast adenocarcinoma (MCF-7) and a non-tumorigenic colon (CCD-18Co) cell line using the sulforhodamine B assay.
(§2) Human breast adenocarcinoma MCF-7, pancreatic ductal adenocarcinoma PANC-1, melanoma A375, and non-tumorigenic colon CCD-18Co cell lines were purchased from ATCC (Rockville, MD, USA). Human colorectal adenocarcinoma HCT116 cells were kindly provided by B. Vogelstein (The Johns Hopkins Kimmel Cancer Center, Baltimore, MD, USA). Tumor cells were routinely cultured in RPMI-1640 medium with UltraGlutamine from Biowest (VWR, Carnaxide, Portugal) supplemented with 10% fetal bovine serum (FBS) from Biowest (VWR, Carnaxide, Portugal), except for the PANC-1 cells, which were grown in DMEM (4.5 g/L glucose) with stable L-glutamine and sodium pyruvate and supplemented with 10% FBS. The non-tumorigenic CCD-18Co cells were cultured in EMEM (Lonza, VWR, Carnaxide, Portugal), supplemented with 10% FBS. All cells were incubated at 37 °C in a humidified atmosphere of 5% CO2. Routine mycoplasma testing was performed using the MycoAlert™ PLUS mycoplasma detection kit (Lonza).
(§3) For the evaluation of the compound effect on cell proliferation, human cell lines were seeded in 96-well plates at a density of 5.0 × 10^3 (HCT116, MCF-7, PANC-1, A375, and CCD-18Co) cells per well, for 24 h. Cells were then treated with serial dilutions of the compound (ranging from 0.63 to 30 µM), for an additional 48 h incubation period. The growth inhibitory effects were assessed by SRB assay, as described in [58], and the half-maximal inhibitory concentration (IC50 values) were determined for each cell line using the GraphPad Prism software version 7.0 (La Jolla, CA, USA). Culture medium containing a maximum of 0.05% dimethyl sulfoxide (DMSO) was used as negative control.

[3] = test system: PANC-1 cells; assay: Scratch (wound healing) assay; type: cell-based, human; conditions: PANC-1, 1.35 µM, 6 h and 24 h
Text: Metastasis remains the greatest challenge in the clinical management of cancer. Cell migration is a key process that, during the whole cascade of cancer development, contributes to tumor invasion and metastasis. The scratch assay is a common in vitro technique used to assess two-dimensional cell migration and motility. It involves creating an artificial scratch or “wound” in a confluent monolayer of cells and then monitoring the progression of the wound over time. Therefore, a wound healing assay was used to evaluate the effect of compound 12 on the cell migration ability of PANC-1 cells.
Totals of 6 × 10^5 PANC-1 cells/well were grown to confluence in 6-well plates, and a fixed-width wound was created in the cell monolayer using a sterile 10 µL micropipette tip. Cells were treated with DMSO or 1.35 µM of compound 12 and images of the wound were captured at different time points (0, 6, and 24 h) using an inverted NIKON TE 2000-U microscope from Nikon Instruments Inc. (Izasa, Carnaxide, Portugal) at 100× magnification with a DXM1200F digital camera (Nikon Instruments Inc., Amstelveen, The Netherlands) and NIS-Elements microscope imaging software (version 4; Nikon Instruments Inc.). Wound closure was calculated by subtracting the wound area (measured using Fiji Software, version 1.54f) at the indicated time point of treatment from the wound area at the starting point (0 h).

[4] = test system: PANC-1 cells (pancreatic ductal adenocarcinoma); assay: Sulforhodamine B (SRB) antiproliferative assay, PANC-1; type: cell-based, human
Description: as §1, §2, §3

[5] = test system: HCT116 cells (colorectal adenocarcinoma); assay: Sulforhodamine B (SRB) antiproliferative assay, HCT116; type: cell-based; conditions: Homo sapiens, HCT-116, HCT116, 48 h, mean ± SEM of four to six independent experiments
Description: as §1, §2, §3

With C=C1CC[C@@H]2[C@](C)(COC(C)=O)[C@H](OC(C)=O)CC[C@@]2(C)[C@@H]1C[C@H](C1=CCOC1=O)n1cc(-c2ccc(Br)cc2)nn1 [Compound 12, (12R)-4-bromophenyl-1,2,3-triazole-3,19-diacetoxy-14-deoxy-andrographolide] the “levels of cleaved PARP-1” value [1] was “significant increase in the levels of cleaved PARP-1”, the IC50 [2] was 9.6 ± 2.3 µM and the “wound closure compared to control” value [3] was “significantly reduced the wound closure”. The IC50 ([4]; Homo sapiens, PANC-1, 48 h, SRB, mean ± SEM of four to six independent experiments) was 3.4 ± 0.9 µM, the IC10 ([4]; PANC-1, concentration which has no significant effect on cell proliferation) was 1.35 µM and the IC50 [5] was 1.7 ± 0.2 µM.
